molecular target: T1, human GLP-1R (Homo sapiens, UniProt P43220); test: GLP-1R cAMP assay (Example B1a, HTRF, 30 min at room temperature); format: cell-based; details: cAMP accumulation in HEK293 expressing human GLP-1R, no BETP, 30 min room temperature (Method B1a, compounds ID 1-609), Table 1; read-out: EC50
T1 construct: host or cells: HEK293
In short: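 Competitive HTRF read-out of cAMP after 30 min room-temperature stimulation, BETP absent, of human GLP-1R-HEK293 cells (1,000/well) in HEPES buffer with 500 μM IBMX and 0.1% BSA. Activation normalised to GLP-1(7-37) positive control. EC50 from 4-parameter non-linear regression.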

T1 sequence (P43220 24-463): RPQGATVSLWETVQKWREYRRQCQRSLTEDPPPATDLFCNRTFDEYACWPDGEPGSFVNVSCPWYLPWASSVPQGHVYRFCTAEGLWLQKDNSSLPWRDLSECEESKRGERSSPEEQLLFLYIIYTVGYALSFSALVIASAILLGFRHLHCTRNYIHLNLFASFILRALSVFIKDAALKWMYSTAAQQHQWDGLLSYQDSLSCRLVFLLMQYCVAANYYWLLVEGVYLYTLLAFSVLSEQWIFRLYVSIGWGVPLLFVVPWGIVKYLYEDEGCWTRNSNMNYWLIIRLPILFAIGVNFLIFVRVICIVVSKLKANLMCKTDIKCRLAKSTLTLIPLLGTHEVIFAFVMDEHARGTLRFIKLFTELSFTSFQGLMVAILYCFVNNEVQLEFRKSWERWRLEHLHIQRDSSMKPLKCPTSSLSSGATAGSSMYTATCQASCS

SMILES	EC50 [nM]
CCP(=O)(CC)c1ccc(-n2ccn(-c3c4c(nn3-c3cc(C)c(F)c(C)c3)C[C@H]3CC[C@@H]4N3C(=O)c3cc4cc([C@H]5CCOC(C)(C)C5)ccc4n3[C@@]3(c4noc(=O)[nH]4)C[C@@H]3C)c2=O)cc1NC [Compound 203, 3-[(1S,2S)-1-[2-[(1S,8R)-3-[3-[4-diethylphosphoryl-3-(methylamino)phenyl]-2-oxo-imidazol-1-yl]-4-(4-fluoro-3,5-dimethyl-phenyl)-4,5,11-triazatricyclo[6.2.1.02,6]undeca-2,5-diene-11-carbonyl]-5-[(4S)-2,2-dimethyltetrahydropyran-4-yl]indol-1-yl]-2-methyl-cyclopropyl]-4H-1,2,4-oxadiazol-5-one]	919
Cc1cc(-n2nc3c(c2-n2ccn(-c4ccc5c(cnn5C)c4F)c2=O)[C@H]2CC[C@@H]([C@@H]3F)N2C(=O)c2cc3cc([C@H]4CCOC(C)(C)C4)ccc3n2[C@@]2(c3noc(=O)[nH]3)C[C@@H]2C)cc(C)c1F [Compound 513, 3-[(1S,2S)-1-[5-[(4S)-2,2-dimethyltetrahydropyran-4-yl]-2-[(1R,7S,8S)-7-fluoro-4-(4-fluoro-3,5-dimethyl-phenyl)-3-[3-(4-fluoro-1-methyl-indazol-5-yl)-2-oxo-imidazol-1-yl]-4,5,11-triazatricyclo[6.2.1.02,6]undeca-2,5-diene-11-carbonyl]indol-1-yl]-2-methyl-cyclopropyl]-4H-1,2,4-oxadiazol-5-one]	≥ 10000
Cc1cc(-n2nc3c(c2-n2ccn(-c4ccc5c(cnn5C)c4F)c2=O)[C@@H]2CC[C@H](C3)N2C(=O)c2cc3cc(C4CCOC(C)(C)C4)ncc3n2[C@@]2(c3noc(=O)[nH]3)C[C@@H]2C)cc(C)c1F (stereo partly drawn) [Compound 209, 3-((1S,2S)-1-(5-(2,2-dimethyltetrahydro-2H-pyran-4-yl)-2-((4S,7R)-3-(3-(4-fluoro-1-methyl-1H-indazol-5-yl)-2-oxo-2,3-dihydro-1H-imidazol-1-yl)-2-(4-fluoro-3,5-dimethylphenyl)-2,4,5,6,7,8-hexahydro-4,7-epiminocyclohepta [c]pyrazole-9-carbonyl)-1H-pyrrolo[2,3-c]pyridin-1-yl)-2-methylcyclopropyl)-1,2,4-oxadiazol-5 (4H)-one]	117
Cc1cc(-n2nc3c(c2-n2ccn(-c4ccc5c(cnn5C)c4F)c2=O)[C@@H]2CC[C@H](C3)N2C(=O)c2cc3cc(C4CCOC5(COC5)C4)ccc3n2C2(c3noc(=O)[nH]3)CC2)cc(C)c1F (stereo partly drawn) [Compound 136, 3-[1-[5-(2,5-dioxaspiro[3.5]nonan-8-yl)-2-[(1S,8R)-4-(4-fluoro-3,5-dimethyl-phenyl)-3-[3-(4-fluoro-1-methyl-indazol-5-yl)-2-oxo-imidazol-1-yl]-4,5,11-triazatricyclo[6.2.1.02,6]undeca-2,5-diene-11-carbonyl]indol-1-yl]cyclopropyl]-4H-1,2,4-oxadiazol-5-one]	> 10000
Cc1cc(-n2nc3c(c2-n2ccn(-c4ccc5c(cnn5C)c4F)c2=O)[C@@H]2CC[C@H](C3)N2C(=O)c2cc3nc([C@@H]4CCOC(C)(C)C4)ccc3n2[C@@]2(c3noc(=O)[nH]3)C[C@@H]2C)cc(C)c1F [Compound 218, 3-[(1S,2S)-1-[5-[(4R)-2,2-dimethyltetrahydropyran-4-yl]-2-[(1S,8R)-4-(4-fluoro-3,5-dimethyl-phenyl)-3-[3-(4-fluoro-1-methyl-indazol-5-yl)-2-oxo-imidazol-1-yl]-4,5,11-triazatricyclo[6.2.1.02,6]undeca-2,5-diene-11-carbonyl]pyrrolo[3,2-b]pyridin-1-yl]-2-methyl-cyclopropyl]-4H-1,2,4-oxadiazol-5-one]	> 10000
Cc1cc(-n2nc3c(c2-c2ncn(-c4ccc5c(cnn5C)c4F)c2C)[C@H](C)N(C(=O)c2cc4cc([C@H]5CCOC(C)(C)C5)ccc4n2[C@@]2(c4noc(=O)[nH]4)C[C@@H]2C)CC3)cc(C)c1F [Compound 15, 3-((1S,2S)-1-(5-((S)-2,2-dimethyltetrahydro-2H-pyran-4-yl)-2-((S)-3-(1-(4-fluoro-1-methyl-1H-indazol-5-yl)-5-methyl-1H-imidazol-4-yl)-2-(4-fluoro-3,5-dimethylphenyl)-4-methyl-4,5,6,7-tetrahydro-2H-pyrazolo[4,3-c]pyridine-5-carbonyl)-1H-indol-1-yl)-2-methylcyclopropyl)-1,2,4-oxadiazol-5 (4H)-one]	584
Cc1cc(-n2nc3c(c2-n2ccn(-c4ccc5c(cnn5C)c4F)c2=O)[C@@H]2COC[C@H](C3)N2C(=O)c2cc3cc([C@H]4CCOC5(CC5)C4)ccc3n2[C@@]2(c3noc(=O)[nH]3)C[C@@H]2C)cc(C)c1F [Compound 226, 3-((1S,2S)-1-(2-((4R,8S)-3-(3-(4-fluoro-1-methyl-1H-indazol-5-yl)-2-oxo-2,3-dihydro-1H-imidazol-1-yl)-2-(4-fluoro-3,5-dimethylphenyl)-2,4,5,7,8,9-hexahydro-4,8-epiminooxocino [5,4-c]pyrazole-10-carbonyl)-5-((S)-4-oxaspiro[2.5]octan-7-yl)-1H-indol-1-yl)-2-methylcyclopropyl)-1,2,4-oxadiazol-5 (4H)-one]	435

Next, values leading:

EC50 [nM]	SMILES
650	Cc1cc(-n2nc3c(c2-n2ccn(-c4ccc5c(cnn5C)c4F)c2=O)[C@@H]2CC[C@H](C3)N2C(=O)c2cc3cc([C@@H]4CCOC4(C)C)ccc3n2[C@@]2(c3noc(=O)[nH]3)C[C@@H]2C)cc(C)c1F [Compound 420, 3-[(1S,2S)-1-[5-[(3S)-2,2-dimethyltetrahydrofuran-3-yl]-2-[(1S,8R)-4-(4-fluoro-3,5-dimethyl-phenyl)-3-[3-(4-fluoro-1-methyl-indazol-5-yl)-2-oxo-imidazol-1-yl]-4,5,11-triazatricyclo[6.2.1.02,6]undeca-2,5-diene-11-carbonyl]indol-1-yl]-2-methyl-cyclopropyl]-4H-1,2,4-oxadiazol-5-one]
≥ 10000	Cc1cc(-n2nc3c(c2-n2ccn(-c4ccc5c(cnn5C)c4F)c2=O)[C@@H]2CCC[C@H](C3)N2S(=O)(=O)c2cc3cc(N4CCOC5(CC5)C4)ccc3n2[C@]2(c3noc(=O)[nH]3)C[C@@H]2C)cc(C)c1F [Compound 538, 3-[(1R,2S)-1-[2-[[(1S,8R)-4-(4-fluoro-3,5-dimethyl-phenyl)-3-[3-(4-fluoro-1-methyl-indazol-5-yl)-2-oxo-imidazol-1-yl]-4,5,12-triazatricyclo[6.3.1.02,6]dodeca-2,5-dien-12-yl]sulfonyl]-5-(4-oxa-7-azaspiro[2.5]octan-7-yl)indol-1-yl]-2-methyl-cyclopropyl]-4H-1,2,4-oxadiazol-5-one]
≥ 10000	Cc1cc(-n2nc3c(c2-n2ccn(-c4ccc5c(cnn5C)c4F)c2=O)[C@H]2CC[C@@H](CC3)N2C(=O)c2cc3cc([C@H]4CCOC(C)(C)C4)ccc3n2[C@@]2(c3noc(=O)[nH]3)C[C@@H]2C)cc(C)c1F [Compound 524, 3-[(1S,2S)-1-[5-[(4S)-2,2-dimethyltetrahydropyran-4-yl]-2-[(1R,9S)-4-(4-fluoro-3,5-dimethyl-phenyl)-3-[3-(4-fluoro-1-methyl-indazol-5-yl)-2-oxo-imidazol-1-yl]-4,5,12-triazatricyclo[7.2.1.02,6]dodeca-2,5-diene-12-carbonyl]indol-1-yl]-2-methyl-cyclopropyl]-4H-1,2,4-oxadiazol-5-one]
585	Cc1cc(-n2nc3c(c2-n2ccn(-c4ccc5c(cnn5C)c4F)c2=O)[C@@H]2COC[C@H](C3)N2C(=O)c2cc3cc([C@@H]4CCOC5(CC5)C4)ccc3n2[C@@]2(c3noc(=O)[nH]3)C[C@@H]2C)cc(C)c1F [Compound 227, 3-((1S,2S)-1-(2-((4R,8S)-3-(3-(4-fluoro-1-methyl-1H-indazol-5-yl)-2-oxo-2,3-dihydro-1H-imidazol-1-yl)-2-(4-fluoro-3,5-dimethylphenyl)-2,4,5,7,8,9-hexahydro-4,8-epiminooxocino [5,4-c]pyrazole-10-carbonyl)-5-((R)-4-oxaspiro[2.5]octan-7-yl)-1H-indol-1-yl)-2-methylcyclopropyl)-1,2,4-oxadiazol-5 (4H)-one]
630	Cc1cc(-n2nc3c(c2-n2ccn(-c4ccc5c(cnn5C)c4F)c2=O)C2CCC([C@@H]3F)N2C(=O)c2cc3cc([C@H]4CCOC(C)(C)C4)ccc3n2[C@@]2(c3noc(=O)[nH]3)C[C@@H]2C)cc(C)c1F (stereo partly drawn) [Compound 507, cis-3-((1S,2S)-1-(5-((S)-2,2-dimethyltetrahydro-2H-pyran-4-yl)-2-(8-fluoro-3-(3-(4-fluoro-1-methyl-1H-indazol-5-yl)-2-oxo-2,3-dihydro-1H-imidazol-1-yl)-2-(4-fluoro-3,5-dimethylphenyl)-2,4,5,6,7,8-hexahydro-4,7-epiminocyclohepta [c]pyrazole-9-carbonyl)-1H-indol-1-yl)-2-methylcyclopropyl)-1,2,4-oxadiazol-5 (4H)-one]
53.7	Cc1cc(-n2nc3c(c2-n2ccn(-c4ccc5c(cnn5C)c4F)c2=O)[C@H](C)N(C(=O)c2cc4cc(C5CCOCC5)ccc4n2[C@@]2(c4noc(=O)[nH]4)C[C@@H]2C)CCC3)cc(C)c1F [Compound 607, 3-((1S,2S)-1-(2-((S)-3-(3-(4-fluoro-1-methyl-1H-indazol-5-yl)-2-oxo-2,3-dihydro-1H-imidazol-1-yl)-2-(4-fluoro-3,5-dimethylphenyl)-4-methyl-2,4,5,6,7,8-hexahydropyrazolo[4,3-c]azepine-5-carbonyl)-5-(tetrahydro-2H-pyran-4-yl)-1H-indol-1-yl)-2-methylcyclopropyl)-1,2,4-oxadiazol-5 (4H)-one]

same assay, conditions: text to Table 1d, bridge atoms configured out of the plane or toward the reader

SMILES	potency
Cc1cc(-n2nc3c(c2-n2ccn(-c4ccc5c(cnn5C)c4F)c2=O)[C@H]2CC[C@@H]([C@@H]3F)N2C(=O)c2cc3cc([C@H]4CCOC(C)(C)C4)ccc3n2[C@@]2(c3noc(=O)[nH]3)C[C@@H]2C)cc(C)c1F [Compound 513, 3-[(1S,2S)-1-[5-[(4S)-2,2-dimethyltetrahydropyran-4-yl]-2-[(1R,7S,8S)-7-fluoro-4-(4-fluoro-3,5-dimethyl-phenyl)-3-[3-(4-fluoro-1-methyl-indazol-5-yl)-2-oxo-imidazol-1-yl]-4,5,11-triazatricyclo[6.2.1.02,6]undeca-2,5-diene-11-carbonyl]indol-1-yl]-2-methyl-cyclopropyl]-4H-1,2,4-oxadiazol-5-one]	little or no potency

— patent publication US12617783B2, “Heterocyclic GLP-1R agonists” (BIOMEA FUSION, INC., priority 2024, dated 2026)
